The source of these data is patent US20040152106A1, “Gene necessary for striatal function, uses thereof, and compounds for modulating same” (priority 1999, published 2004).

Some results are limits rather than exact numbers.

For test [1], the target named is T1, PDE10A (Mus musculus, UniProt Q8CA95).
T1 sequence (Q8CA95 1-779 isoform Q8CA95-2): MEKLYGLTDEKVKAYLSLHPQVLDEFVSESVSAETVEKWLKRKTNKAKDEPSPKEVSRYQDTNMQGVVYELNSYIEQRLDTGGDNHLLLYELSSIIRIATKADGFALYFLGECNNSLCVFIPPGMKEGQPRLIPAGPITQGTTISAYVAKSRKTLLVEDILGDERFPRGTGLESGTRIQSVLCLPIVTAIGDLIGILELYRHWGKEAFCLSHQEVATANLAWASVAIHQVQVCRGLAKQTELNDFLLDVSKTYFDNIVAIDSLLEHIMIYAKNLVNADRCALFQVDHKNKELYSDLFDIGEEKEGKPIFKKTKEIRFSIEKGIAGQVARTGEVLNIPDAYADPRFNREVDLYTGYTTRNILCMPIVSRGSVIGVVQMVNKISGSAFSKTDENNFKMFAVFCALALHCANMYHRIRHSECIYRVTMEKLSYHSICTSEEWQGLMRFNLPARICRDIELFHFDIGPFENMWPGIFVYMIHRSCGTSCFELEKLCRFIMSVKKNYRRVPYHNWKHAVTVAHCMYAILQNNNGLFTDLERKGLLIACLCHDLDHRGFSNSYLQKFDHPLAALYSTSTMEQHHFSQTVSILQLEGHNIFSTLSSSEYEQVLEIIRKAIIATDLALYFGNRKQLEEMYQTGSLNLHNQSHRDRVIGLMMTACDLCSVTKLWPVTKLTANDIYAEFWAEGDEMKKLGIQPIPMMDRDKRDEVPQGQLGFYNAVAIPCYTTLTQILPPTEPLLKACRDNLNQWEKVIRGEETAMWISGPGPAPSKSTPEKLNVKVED
The following applies: among inhibitors tested on PDE10A; cited from earlier work.

In test [2] the test system is Huntington's disease patient. Description: Clinical use of PDE10A modulator in a Huntington's disease patient (case report). Format: in vivo, human. The following applies: 200 mg twice daily resumed after 7 days of suspension. The protocol:
A person was admitted to hospital from a long-term care facility due to progressive deterioration of their physical and mental symptoms caused by Huntington's disease. The patient had been diagnosed with Huntington's disease. Prior to admission to the hospital, they had become increasingly aggressive and uncooperative. Moreover, there appeared to be an increase in the number of psychotic episodes. […] The patient had been stable for a number of years on the antipsycotic haloperidol (3 mg/day). For the last two years, the haloperidol had been replaced by olanzapine (2.5-7.5 mg/day). Minocycline, a tetracycline derivative, was administered at 50 mg twice daily for 7 days, followed by 100 mg twice daily for 7 days and finally 200 mg twice daily for 5 weeks. […] The minocycline treatment was suspended for 7 days. […] Minocycline (200 mg twice daily) treatment will continue indefinitely. The improvement in behaviour and decrease in apparent psychosis has allowed for the transfer of the patient from the acute care facility back to long-term care.

Regarding `OCCN(CCO)c1nc(N2CCCCC2)c2nc(N(CCO)CCO)nc(N3CCCCC3)c2n1` [Dipyridamole], the “potency as inhibitor of PDE10A activity” value in test [1] was “highest potency”.
On to `CN(C)c1ccc(O)c2c1C[C@H]1C[C@H]3[C@H](N(C)C)C(O)=C(C(N)=O)C(=O)[C@@]3(O)C(O)=C1C2=O` [Minocycline], for which the “time to response after resumed treatment” value in test [2] was not above 3 days.
Consider `CC(C)Cn1c(=O)n(C)c(=O)c2[nH]cnc21` [IBMX], for which, in test [1], the “potency as inhibitor of PDE10A activity” value is recorded as “potent inhibitor”.
Turning to `CN1C(=O)c2[nH]c(Cc3ccc(C(F)(F)F)cc3)nc2N2C1=N[C@@H]1CCC[C@@H]12` [SCH 51866], the “potency as inhibitor of PDE10A activity” value in test [1] was “highest potency”.
